# Reference: US20030215817A1, “Modulation of gene expression in formation of fatty atherosclerotic lesions” (priority 2003, published 2003)
# Counter-ions that a name gives are not always drawn.
# Tests used:
# Rec1_36 (TTAG 155) mRNA = assay: quantified RT-PCR, Rec1_36; format: in vivo, rabbit; details: hypercholesterolemic plus lercanidipine racemate, eight weeks, H2 (normocholesterolemic)=1.0
# Method: (§1) Nineteen of the isolated DST clones were further validated using RT-PCR analyses; the data are presented in FIGS. 6-24 and in Tables 5-23, below. For each DST examined, the optimal annealing temperature and reagent conditions were determined for the corresponding set of primers (see Table 25) based on results from a preliminary experiment. In eight separate reactions, each set of primers was assayed to find the optimal conditions by adjusting the following four parameters: primer concentration, dNTP concentration, MgCl2 concentration, and number of Taq polymerase units. Once optimal conditions were determined, each DST was run in duplicate multiple simultaneous reactions which usually included at least four dilutions of template (cDNA library), plus control reactions lacking template, and six sequential data points for numbers of cycles.
# Reactions were performed using “Hot Start” PCR with the Clontech TaqStart antibody system (Cat. #5400-1). Each reaction contained 1 ml of the cDNA library dilution as template, determined amounts of AmpliTaq DNA polymerase (cat. #N808-0156), MgCl2, dNTPs (GibcoBRL cat. #10297-018), primer, and Clontech TaqStart Antibody in a 20 ml final reaction volume using 10×Taq buffer II (without MgCl2). Typically, a master mix containing all components except the template was prepared and aliquoted. […] At various times during the PCR run, tubes were removed sequentially on a predetermined schedule in order to quantitate expression of the target DST over a “window” of cycle times. After amplification, the samples were quantified via fluorimetry.
# PCR was performed at annealing temperatures that were five degrees above the average melting temperature of each primer pair. For primers greater than 10 bases (in a 0.05M salt solution), melting temperature was calculated using the following formula: Tm=59.9+41[% GC]−[675/Primer Length], where %GC is the decimal value. Following determination of the average melting temperature of the primer pair, the annealing temperature was determined by adding five degrees to the average melting temperature. […]
# REC1_19 (TGTT 393) mRNA = assay: quantified RT-PCR, Rec1_19; format: in vivo, rabbit; details: for Relative Abundance Rec1_19, 100 pg F: hypercholesterolemic plus lercanidipine racemate, eight weeks, H2 (normocholesterolemic)=1.0
# Method: as §1
# (§2) Reactions were performed using “Hot Start” PCR with the Clontech TaqStart antibody system (Cat. #5400-1). Each reaction contained 1 ml of the cDNA library dilution as template, determined amounts of AmpliTaq DNA polymerase (cat. #N808-0156), MgCl2, dNTPs (GibcoBRL cat. #10297-018), primer, and Clontech TaqStart Antibody in a 20 ml final reaction volume using 10×Taq buffer II (without MgCl2). Typically, a master mix containing all components except the template was prepared and aliquoted. Various templates were then added to these master mix samples and 20 ml volumes were subsequently dispensed into individual reaction tubes. At various times during the PCR run, tubes were removed sequentially on a predetermined schedule in order to quantitate expression of the target DST over a “window” of cycle times. After amplification, the samples were quantified via fluorimetry.
# (§3) PCR was performed at annealing temperatures that were five degrees above the average melting temperature of each primer pair. For primers greater than 10 bases (in a 0.05M salt solution), melting temperature was calculated using the following formula: Tm=59.9+41[% GC]−[675/Primer Length], where %GC is the decimal value. Following determination of the average melting temperature of the primer pair, the annealing temperature was determined by adding five degrees to the average melting temperature. PCR was performed using the following program: 1) 95 degrees Celsius, 3 minutes; 2) 95 degrees Celsius, 30 seconds; 3) TM+5 degrees Celsius, 30 seconds; 4) 72 degrees Celsius, for a time dependent on target length at 16 bp/second; 5) repeat steps 2-4 33 more cycles; 6) 72 degrees Celsius, 3 minutes; 7) 14 degrees Celsius, forever.
# (§4) Following temperature cycling, 2 ml of the PCR reaction was added to 140 ml of a 1:280 dilution of PicoGreen (Molecular Probes cat. #P-11495 (10×100 ml)) in TE pH 7.5 in a 96-well Costar UV microtiter plate (Fisher cat. #07-200623). The samples were mixed gently for 1.5 minutes and allowed to equilibrate at room temperature in the dark for 15 minutes. The concentration of the PCR products was quantified by fluorimetry using a PerSeptive Biosystems CytoFluor series 4000 multi-well plate reader.
# (§5) Background fluorescence was determined by using duplicate control samples that were cycled with all reaction components except the template. The mean value from these duplicate background control samples was subtracted from the corresponding experimental values prior to analyzing results. The sensitivity of the PicoGreen dsDNA assay is reported to be 250 pg/ml (50 pg dsDNA in a […] assay volume) using a fluorescence microplate reader such as was used in these measurements. […]
# REC1_5 (AGTG 184) mRNA = assay: quantified RT-PCR, Rec1_5; format: in vivo, rabbit; details: for Relative Abundance Rec1_5, 100 pg F: hypercholesterolemic plus lercanidipine racemate, eight weeks, H2 (normocholesterolemic)=1.0
# Method: as §1, §2, §3, §4, §5
# Rec1_20 (TTAC 210) mRNA = assay: quantified RT-PCR, Rec1_20; format: in vivo, rabbit; details: for Relative Abundance Rec1_20, 20 pg F: hypercholesterolemic plus lercanidipine racemate, eight weeks, H2 (normocholesterolemic)=1.0
# Method: as §1, §2, §3, §4, §5
# Rec1_7 (CACA 282) mRNA = assay: quantified RT-PCR, Rec1_7; format: in vivo, rabbit; details: for Relative Abundance Rec1_7, 100 pg F: hypercholesterolemic plus lercanidipine racemate, eight weeks, H2 (normocholesterolemic)=1.0
# Method: as §1, §2, §3, §4, §5
# [1] = system: REC1_2 (MspI AATC 108) mRNA; assay: quantified RT-PCR, Rec1_2; format: in vivo, rabbit; details: for Relative Abundance Rec1_2, 500 pg F: hypercholesterolemic plus lercanidipine racemate, eight weeks, H2 (normocholesterolemic)=1.0
# Method: as §1, §2, §3, §4, §5
# [2] = in vivo studies (Soma 1998); cited from earlier work
# [3] = system: cholesterol acyl transferase; details: Soma et al. 1998; cited from earlier work
# [4] = system: REC1_3 (MspI ACGG 162) mRNA; assay: quantified RT-PCR, Rec1_3; format: in vivo, rabbit; details: for Relative Abundance Rec1_3, 500 pg F: hypercholesterolemic plus lercanidipine racemate, eight weeks, H2 (normocholesterolemic)=1.0
# Method: as §1, §2, §3, §4, §5
# [5] = system: REC1_18 (MspI TGGT 241) mRNA; assay: quantified RT-PCR, Rec1_18; format: in vivo, rabbit; details: for Relative Abundance Rec1_18, 20 pg F: hypercholesterolemic plus lercanidipine racemate, eight weeks, H2 (normocholesterolemic)=1.0
# Method: as §1, §2, §3, §4, §5
# [6] = (R)-enantiomer compared with the other enantiomer of lercanidipine; cited from earlier work
# calcium channel = details: (R)-enantiomer compared with the other enantiomer of lercanidipine; cited from earlier work
# [7] = hypercholesterolemic animals receiving lercanidipine
# [8] = hypercholesterolemic animals receiving lercanidipine racemate
structure (smiles),measurement,setting,value
"COC(=O)C1=C(C)NC(C)=C(C(=O)OC(C)(C)CN(C)CCC(c2ccccc2)c2ccccc2)C1c1cccc([N+](=O)[O-])c1 (racemic) [lercanidipine, lercanidipine hydrochloride]","Relative Abundance Rec1_36, 100 pg F",Rec1_36 (TTAG 155) mRNA; cycle 30,0.2
same,"Relative Abundance Rec1_36, 100 pg F",Rec1_36 (TTAG 155) mRNA; cycle 32,0.5
same,"Relative Abundance Rec1_36, 100 pg F",Rec1_36 (TTAG 155) mRNA; cycle 34,0.4
same,"Relative Abundance Rec1_19, 100 pg F",REC1_19 (TGTT 393) mRNA; cycle 24,0.0
same,"Relative Abundance Rec1_19, 100 pg F",REC1_19 (TGTT 393) mRNA; cycle 26,0.0
same,"Relative Abundance Rec1_19, 100 pg F",REC1_19 (TGTT 393) mRNA; cycle 28,0.0
same,"Relative Abundance Rec1_19, 100 pg F",REC1_19 (TGTT 393) mRNA; cycle 30,0.1
same,"Relative Abundance Rec1_19, 100 pg F",REC1_19 (TGTT 393) mRNA; cycle 32,0.3
same,"Relative Abundance Rec1_19, 100 pg F",REC1_19 (TGTT 393) mRNA; cycle 34,0.5
same,"expression of Rec1_19 at 8 weeks (RT-PCR study), in words",REC1_19 (TGTT 393) mRNA; [7],decreased
same,"Relative Abundance Rec1_5, 100 pg F",REC1_5 (AGTG 184) mRNA; cycle 24,512.5
same,"Relative Abundance Rec1_5, 100 pg F",REC1_5 (AGTG 184) mRNA; cycle 26,805.0
same,"Relative Abundance Rec1_5, 100 pg F",REC1_5 (AGTG 184) mRNA; cycle 28,0.2
same,"Relative Abundance Rec1_5, 100 pg F",REC1_5 (AGTG 184) mRNA; cycle 30,0.6
same,"Relative Abundance Rec1_5, 100 pg F",REC1_5 (AGTG 184) mRNA; cycle 32,1.1
same,"Relative Abundance Rec1_5, 100 pg F",REC1_5 (AGTG 184) mRNA; cycle 34,1.0
same,"expression of Rec1_5 at 8 weeks (RT-PCR study), in words","REC1_5 (AGTG 184) mRNA; hypercholesterolemic animals receiving lercanidipine racemate, at 28-30 cycles",decreased
same,"Relative Abundance Rec1_20, 20 pg F",Rec1_20 (TTAC 210) mRNA; cycle 26,0.0
same,"Relative Abundance Rec1_20, 20 pg F",Rec1_20 (TTAC 210) mRNA; cycle 28,0.1
same,"Relative Abundance Rec1_20, 20 pg F",Rec1_20 (TTAC 210) mRNA; cycle 30,0.2
same,"Relative Abundance Rec1_20, 20 pg F",Rec1_20 (TTAC 210) mRNA; cycle 32,0.2
same,"Relative Abundance Rec1_20, 20 pg F",Rec1_20 (TTAC 210) mRNA; cycle 34,0.2
same,"expression of Rec1_20 at 8 weeks (RT-PCR study), in words",Rec1_20 (TTAC 210) mRNA; [7],decreased
same,"Relative Abundance Rec1_7, 100 pg F",Rec1_7 (CACA 282) mRNA; cycle 24,0.00
same,"Relative Abundance Rec1_7, 100 pg F",Rec1_7 (CACA 282) mRNA; cycle 26,0.00
same,"Relative Abundance Rec1_7, 100 pg F",Rec1_7 (CACA 282) mRNA; cycle 28,0.06
same,"Relative Abundance Rec1_7, 100 pg F",Rec1_7 (CACA 282) mRNA; cycle 30,0.10
same,"Relative Abundance Rec1_7, 100 pg F",Rec1_7 (CACA 282) mRNA; cycle 32,0.3
same,"Relative Abundance Rec1_7, 100 pg F",Rec1_7 (CACA 282) mRNA; cycle 34,0.5
same,"expression of Rec1_7 at 8 weeks (RT-PCR study), in words",Rec1_7 (CACA 282) mRNA; [8],down-regulated
same,"Relative Abundance Rec1_2, 500 pg F",[1]; cycle 22,2.7
same,"Relative Abundance Rec1_2, 500 pg F",[1]; cycle 24,0.6
same,"Relative Abundance Rec1_2, 500 pg F",[1]; cycle 26,5.0
same,"Relative Abundance Rec1_2, 500 pg F",[1]; cycle 28,6.6
same,"Relative Abundance Rec1_2, 500 pg F",[1]; cycle 30,2.5
same,"Relative Abundance Rec1_2, 500 pg F",[1]; cycle 32,1.6
same,"expression of Rec1_2 at 8 weeks (RT-PCR study), in words",[1]; [8],elevated
same,aortic fatty lesion deposition,[2],inhibit
same,cholesterol acyl transferase activity,[3],modulate
same,"Relative Abundance Rec1_3, 500 pg F",[4]; cycle 26,0.0
same,"Relative Abundance Rec1_3, 500 pg F",[4]; cycle 28,0.0
same,"Relative Abundance Rec1_3, 500 pg F",[4]; cycle 30,0.0
same,"Relative Abundance Rec1_3, 500 pg F",[4]; cycle 32,0.1
same,"Relative Abundance Rec1_3, 500 pg F",[4]; cycle 34,0.4
same,"expression of Rec1_3 at 8 weeks (RT-PCR study), in words","[4]; hypercholesterolemic animals receiving lercanidipine racemate, compared with hypercholesterolemic animals at 14 days",lower
same,"Relative Abundance Rec1_18, 20 pg F",[5]; cycle 24,169.0
same,"Relative Abundance Rec1_18, 20 pg F",[5]; cycle 26,5.8
same,"Relative Abundance Rec1_18, 20 pg F",[5]; cycle 28,1.0
same,"Relative Abundance Rec1_18, 20 pg F",[5]; cycle 30,1.0
same,"Relative Abundance Rec1_18, 20 pg F",[5]; cycle 32,1.4
same,"Relative Abundance Rec1_18, 20 pg F",[5]; cycle 34,1.1
same,"expression of Rec1_18 at 8 weeks (RT-PCR study), in words",[5]; [8],somewhat elevated
"COC(=O)C1=C(C)NC(C)=C(C(=O)OC(C)(C)CN(C)CCC(c2ccccc2)c2ccccc2)[C@@H]1c1cccc([N+](=O)[O-])c1.Cl (single isomer, unassigned) [(R)-lercanidipine]","effectiveness in lowering blood pressure, less effective",[6],2-3 orders of magnitude
same,"effectiveness as a ligand to the calcium channel, less effective",calcium channel,2-3 orders of magnitude
